Tested on: A549 lung carcinoma cell line
Experiment: Cytotoxic assay
Settings: Homo sapiens, A549, 48 h, read-out: Cytotoxic activity IC50, A549

Compound | IC50
O=C1C(Br)=C(Nc2ccc(F)cc2)C(=O)c2ccccc21 [compound 14, 2-Bromo-3-((4-fluorophenyl)amino)naphthalene-1,4-dione] | 50 ± 3 µM
O=C1C(Cl)=C(Nc2ccc(C(F)(F)F)cc2)C(=O)c2ccccc21 [compound 7, 2-Chloro-3-((4-(trifluoromethyl)phenyl)amino)naphthalene-1,4-dione] | > 50 µg/mL
O=C1C(Cl)=C(Nc2ccc(Br)cc2)C(=O)c2ccccc21 [compound 5, 2-((4-Bromophenyl)amino)-3-chloronaphthalene-1,4-dione] | > 50 µg/mL
O=C1C(Cl)=C(Nc2ccc(O)cc2)C(=O)c2ccccc21 [compound 12, 2-Chloro-3-((4-hydroxyphenyl)amino)naphthalene-1,4-dione] | 30.73 ± 0.18 µM
N#Cc1ccc(NC2=C(Cl)C(=O)c3ccccc3C2=O)cc1 [compound 9, 4-((3-Chloro-1,4-dioxo-1,4-dihydronaphthalen-2-yl)amino)benzonitrile] | 72.72 ± 0.21 µM
O=C1C=C(Nc2ccccc2)C(=O)c2ccccc21 [compound 16, 2-(Phenylamino)naphthalene-1,4-dione] | 40.8 ± 1.51 µM
O=C1C(Cl)=C(Nc2ccc(F)cc2)C(=O)c2ccccc21 [compound 4, 2-Chloro-3-((4-fluorophenyl)amino)naphthalene-1,4-dione] | 148 ± 2.55 µM
O=C1C=C(Nc2ccc(F)cc2)C(=O)c2ccccc21 [compound 17, 2-((4-Fluorophenyl)amino)naphthalene-1,4-dione] | > 50 µg/mL

Tested on: T47D hormone-dependent breast cancer cell line
Experiment: Cytotoxic assay
Settings: Homo sapiens, 48 h, read-out: Cytotoxic activity IC50, T47D

Compound | IC50
O=C1C(Br)=C(Nc2ccc(F)cc2)C(=O)c2ccccc21 [compound 14, 2-Bromo-3-((4-fluorophenyl)amino)naphthalene-1,4-dione] | 28.5 ± 1 µM
O=C1C(Cl)=C(Nc2ccc(C(F)(F)F)cc2)C(=O)c2ccccc21 [compound 7, 2-Chloro-3-((4-(trifluoromethyl)phenyl)amino)naphthalene-1,4-dione] | 63.4 ± 2.12 µM
O=C1C(Cl)=C(Nc2ccc(Br)cc2)C(=O)c2ccccc21 [compound 5, 2-((4-Bromophenyl)amino)-3-chloronaphthalene-1,4-dione] | > 50 µg/mL
O=C1C(Cl)=C(Nc2ccc(O)cc2)C(=O)c2ccccc21 [compound 12, 2-Chloro-3-((4-hydroxyphenyl)amino)naphthalene-1,4-dione] | 14.7 ± 0.43 µM
N#Cc1ccc(NC2=C(Cl)C(=O)c3ccccc3C2=O)cc1 [compound 9, 4-((3-Chloro-1,4-dioxo-1,4-dihydronaphthalen-2-yl)amino)benzonitrile] | 11.27 ± 0.06 µM
O=C1C=C(Nc2ccccc2)C(=O)c2ccccc21 [compound 16, 2-(Phenylamino)naphthalene-1,4-dione] | > 50 µg/mL
O=C1C(Cl)=C(Nc2ccc(F)cc2)C(=O)c2ccccc21 [compound 4, 2-Chloro-3-((4-fluorophenyl)amino)naphthalene-1,4-dione] | 17.9 ± 0.76 µM
O=C1C=C(Nc2ccc(F)cc2)C(=O)c2ccccc21 [compound 17, 2-((4-Fluorophenyl)amino)naphthalene-1,4-dione] | 88.7 ± 1.64 µM

Tested on: HepG2 hepatocellular carcinoma cell line
Experiment: Cytotoxic assay
Settings: not given

Compound | Cytotoxic activity IC50, HepG2
O=C1C(Cl)=C(Nc2ccc(Br)cc2)C(=O)c2ccccc21 [compound 5, 2-((4-Bromophenyl)amino)-3-chloronaphthalene-1,4-dione] | inactive

Same assay, conditions: Homo sapiens, HepG2, 48 h, read-out: Cytotoxic activity IC50, HepG2

Compound | IC50
O=C1C(Br)=C(Nc2ccc(F)cc2)C(=O)c2ccccc21 [compound 14, 2-Bromo-3-((4-fluorophenyl)amino)naphthalene-1,4-dione] | 19.1 ± 0.82 µM
O=C1C(Cl)=C(Nc2ccc(C(F)(F)F)cc2)C(=O)c2ccccc21 [compound 7, 2-Chloro-3-((4-(trifluoromethyl)phenyl)amino)naphthalene-1,4-dione] | > 50 µg/mL
O=C1C(Cl)=C(Nc2ccc(Br)cc2)C(=O)c2ccccc21 [compound 5, 2-((4-Bromophenyl)amino)-3-chloronaphthalene-1,4-dione] | > 50 µg/mL
O=C1C(Cl)=C(Nc2ccc(O)cc2)C(=O)c2ccccc21 [compound 12, 2-Chloro-3-((4-hydroxyphenyl)amino)naphthalene-1,4-dione] | 22.6 ± 0.87 µM
N#Cc1ccc(NC2=C(Cl)C(=O)c3ccccc3C2=O)cc1 [compound 9, 4-((3-Chloro-1,4-dioxo-1,4-dihydronaphthalen-2-yl)amino)benzonitrile] | 73.4 ± 2.26 µM
O=C1C=C(Nc2ccccc2)C(=O)c2ccccc21 [compound 16, 2-(Phenylamino)naphthalene-1,4-dione] | 25.1 ± 3.31 µM
COc1cc([C@@H]2c3cc4c(cc3[C@@H](O[C@@H]3O[C@@H]5CO[C@@H](C)O[C@H]5[C@H](O)[C@H]3O)[C@H]3COC(=O)[C@H]23)OCO4)cc(OC)c1O [etoposide, reference compound] | 50 ± 3.7 µM
O=C1C(Cl)=C(Nc2ccc(F)cc2)C(=O)c2ccccc21 [compound 4, 2-Chloro-3-((4-fluorophenyl)amino)naphthalene-1,4-dione] | 131.9 ± 1.13 µM
O=C1C=C(Nc2ccc(F)cc2)C(=O)c2ccccc21 [compound 17, 2-((4-Fluorophenyl)amino)naphthalene-1,4-dione] | 23.4 ± 3.45 µM

Tested on: MOLT-3 lymphoblastic leukemia cell line
Experiment: Cytotoxic assay
Settings: not given

Compound | Cytotoxic activity IC50, MOLT-3
O=C1C(Cl)=C(Nc2ccc(Br)cc2)C(=O)c2ccccc21 [compound 5, 2-((4-Bromophenyl)amino)-3-chloronaphthalene-1,4-dione] | inactive

Same assay, conditions: Homo sapiens, MOLT-3, 48 h, read-out: Cytotoxic activity IC50, MOLT-3

Compound | IC50
O=C1C(Br)=C(Nc2ccc(F)cc2)C(=O)c2ccccc21 [compound 14, 2-Bromo-3-((4-fluorophenyl)amino)naphthalene-1,4-dione] | 4.65 ± 0.41 µM
O=C1C(Cl)=C(Nc2ccc(C(F)(F)F)cc2)C(=O)c2ccccc21 [compound 7, 2-Chloro-3-((4-(trifluoromethyl)phenyl)amino)naphthalene-1,4-dione] | 7.68 ± 0.84 µM
O=C1C(Cl)=C(Nc2ccc(Br)cc2)C(=O)c2ccccc21 [compound 5, 2-((4-Bromophenyl)amino)-3-chloronaphthalene-1,4-dione] | > 50 µg/mL
O=C1C(Cl)=C(Nc2ccc(O)cc2)C(=O)c2ccccc21 [compound 12, 2-Chloro-3-((4-hydroxyphenyl)amino)naphthalene-1,4-dione] | 4.67 ± 0.24 µM
N#Cc1ccc(NC2=C(Cl)C(=O)c3ccccc3C2=O)cc1 [compound 9, 4-((3-Chloro-1,4-dioxo-1,4-dihydronaphthalen-2-yl)amino)benzonitrile] | 1.75 ± 0.2 µM
O=C1C=C(Nc2ccccc2)C(=O)c2ccccc21 [compound 16, 2-(Phenylamino)naphthalene-1,4-dione] | > 50 µg/mL
COc1cc([C@@H]2c3cc4c(cc3[C@@H](O[C@@H]3O[C@@H]5CO[C@@H](C)O[C@H]5[C@H](O)[C@H]3O)[C@H]3COC(=O)[C@H]23)OCO4)cc(OC)c1O [etoposide, reference compound] | 0.05 µM
O=C1C(Cl)=C(Nc2ccc(F)cc2)C(=O)c2ccccc21 [compound 4, 2-Chloro-3-((4-fluorophenyl)amino)naphthalene-1,4-dione] | 7.45 ± 1.06 µM
O=C1C=C(Nc2ccc(F)cc2)C(=O)c2ccccc21 [compound 17, 2-((4-Fluorophenyl)amino)naphthalene-1,4-dione] | > 50 µg/mL

Tested on: HuCCA-1 cholangiocarcinoma cancer cell line
Experiment: Cytotoxic assay
Settings: Homo sapiens, HuCC-A1, 48 h, read-out: Cytotoxic activity IC50, HuCCA-1

Compound | IC50
O=C1C(Br)=C(Nc2ccc(F)cc2)C(=O)c2ccccc21 [compound 14, 2-Bromo-3-((4-fluorophenyl)amino)naphthalene-1,4-dione] | 16.2 ± 1.65 µM
O=C1C(Cl)=C(Nc2ccc(C(F)(F)F)cc2)C(=O)c2ccccc21 [compound 7, 2-Chloro-3-((4-(trifluoromethyl)phenyl)amino)naphthalene-1,4-dione] | > 50 µg/mL
O=C1C(Cl)=C(Nc2ccc(Br)cc2)C(=O)c2ccccc21 [compound 5, 2-((4-Bromophenyl)amino)-3-chloronaphthalene-1,4-dione] | > 50 µg/mL
O=C1C(Cl)=C(Nc2ccc(O)cc2)C(=O)c2ccccc21 [compound 12, 2-Chloro-3-((4-hydroxyphenyl)amino)naphthalene-1,4-dione] | 8.21 ± 0.33 µM
N#Cc1ccc(NC2=C(Cl)C(=O)c3ccccc3C2=O)cc1 [compound 9, 4-((3-Chloro-1,4-dioxo-1,4-dihydronaphthalen-2-yl)amino)benzonitrile] | 22.67 ± 0.09 µM
O=C1C=C(Nc2ccccc2)C(=O)c2ccccc21 [compound 16, 2-(Phenylamino)naphthalene-1,4-dione] | 96.2 ± 2.84 µM
O=C1C(Cl)=C(Nc2ccc(F)cc2)C(=O)c2ccccc21 [compound 4, 2-Chloro-3-((4-fluorophenyl)amino)naphthalene-1,4-dione] | 58.7 ± 0.64 µM
O=C1C=C(Nc2ccc(F)cc2)C(=O)c2ccccc21 [compound 17, 2-((4-Fluorophenyl)amino)naphthalene-1,4-dione] | 9.65 ± 1.99 µM

Tested on: MDA-MB-231 hormone-independent breast cancer cell line
Experiment: Cytotoxic assay
Settings: Homo sapiens, MDA-MB-231, 48 h, read-out: Cytotoxic activity IC50, MDA-MB-231

Compound | IC50
O=C1C(Br)=C(Nc2ccc(F)cc2)C(=O)c2ccccc21 [compound 14, 2-Bromo-3-((4-fluorophenyl)amino)naphthalene-1,4-dione] | 7.54 ± 2.07 µM
O=C1C(Cl)=C(Nc2ccc(C(F)(F)F)cc2)C(=O)c2ccccc21 [compound 7, 2-Chloro-3-((4-(trifluoromethyl)phenyl)amino)naphthalene-1,4-dione] | 70.8 ± 2.19 µM
O=C1C(Cl)=C(Nc2ccc(Br)cc2)C(=O)c2ccccc21 [compound 5, 2-((4-Bromophenyl)amino)-3-chloronaphthalene-1,4-dione] | > 50 µg/mL
O=C1C(Cl)=C(Nc2ccc(O)cc2)C(=O)c2ccccc21 [compound 12, 2-Chloro-3-((4-hydroxyphenyl)amino)naphthalene-1,4-dione] | 4.77 ± 0.07 µM
N#Cc1ccc(NC2=C(Cl)C(=O)c3ccccc3C2=O)cc1 [compound 9, 4-((3-Chloro-1,4-dioxo-1,4-dihydronaphthalen-2-yl)amino)benzonitrile] | 43.08 ± 0.19 µM
O=C1C=C(Nc2ccccc2)C(=O)c2ccccc21 [compound 16, 2-(Phenylamino)naphthalene-1,4-dione] | 30.4 ± 0.86 µM
O=C1C(Cl)=C(Nc2ccc(F)cc2)C(=O)c2ccccc21 [compound 4, 2-Chloro-3-((4-fluorophenyl)amino)naphthalene-1,4-dione] | 17 ± 0.2 µM
O=C1C=C(Nc2ccc(F)cc2)C(=O)c2ccccc21 [compound 17, 2-((4-Fluorophenyl)amino)naphthalene-1,4-dione] | 21.8 ± 2.95 µM

Tested on: not listed separately
Experiment: Cytotoxic assay
Settings: human, MRC-5 normal embryonic lung cell line

Compound | IC50 at 48 h
O=C1C(Br)=C(Nc2ccc(F)cc2)C(=O)c2ccccc21 [compound 14, 2-Bromo-3-((4-fluorophenyl)amino)naphthalene-1,4-dione] | 12.5 ± 0.74 µM
O=C1C(Cl)=C(Nc2ccc(C(F)(F)F)cc2)C(=O)c2ccccc21 [compound 7, 2-Chloro-3-((4-(trifluoromethyl)phenyl)amino)naphthalene-1,4-dione] | > 50 µg/mL
O=C1C(Cl)=C(Nc2ccc(Br)cc2)C(=O)c2ccccc21 [compound 5, 2-((4-Bromophenyl)amino)-3-chloronaphthalene-1,4-dione] | > 50 µg/mL
O=C1C(Cl)=C(Nc2ccc(O)cc2)C(=O)c2ccccc21 [compound 12, 2-Chloro-3-((4-hydroxyphenyl)amino)naphthalene-1,4-dione] | 11.4 ± 3.28 µM
N#Cc1ccc(NC2=C(Cl)C(=O)c3ccccc3C2=O)cc1 [compound 9, 4-((3-Chloro-1,4-dioxo-1,4-dihydronaphthalen-2-yl)amino)benzonitrile] | 18.4 ± 1.65 µM
O=C1C=C(Nc2ccccc2)C(=O)c2ccccc21 [compound 16, 2-(Phenylamino)naphthalene-1,4-dione] | > 50 µg/mL
O=C1C(Cl)=C(Nc2ccc(F)cc2)C(=O)c2ccccc21 [compound 4, 2-Chloro-3-((4-fluorophenyl)amino)naphthalene-1,4-dione] | 20.2 ± 1.4 µM
O=C1C=C(Nc2ccc(F)cc2)C(=O)c2ccccc21 [compound 17, 2-((4-Fluorophenyl)amino)naphthalene-1,4-dione] | 21.6 ± 2.45 µM

Reference: publication PMC9161259 (ACS Omega, 2022)
